Measurements: patent EP0090603A2, “Antibacterial compounds” (BEECHAM GROUP PLC, priority 1982, dated 1983)
≈ marks a conversion by molar mass, not a printed value.

What was measured:
Assay type in all cases: cell-based
M. pneumoniae ATCC 15492 = assay: MIC against Mycoplasma, in vitro agar dilution; details: Friis broth solidified with 0.9% agarose, 10^3 to 10^5 C.F.U., 6 days at 37°C; for MIC: Mycoplasmoides pneumoniae, ATCC15492, 144 h, read-out: MIC's against M. pneumoniae ATCC 15492
[1] = tested on: M. suipneumoniae PW/C/210; assay: MIC against Mycoplasma, in vitro agar dilution; details: Friis broth solidified with 0.9% agarose, 10^3 to 10^5 C.F.U., 6 days at 37°C; for MIC: Mesomycoplasma hyopneumoniae, 144 h, read-out: MIC's against M. suipneumoniae PW/C/210
M. dispar NCTC 10125 = assay: MIC against Mycoplasma, in vitro agar dilution; details: Friis broth solidified with 0.9% agarose, 10^3 to 10^5 C.F.U., 6 days at 37°C; for MIC: 144 h, read-out: MIC's against M. dispar NCTC 10125
M. suipneumoniae MS 16 = assay: MIC against Mycoplasma, in vitro agar dilution; details: Friis broth solidified with 0.9% agarose, 10^3 to 10^5 C.F.U., 6 days at 37°C; for MIC: Mesomycoplasma hyopneumoniae, MS16, 144 h, read-out: MIC's against M. suipneumoniae MS 16
[2] = tested on: M. suipneumoniae ATCC 25095; assay: MIC against Mycoplasma, in vitro agar dilution; details: Friis broth solidified with 0.9% agarose, 10^3 to 10^5 C.F.U., 6 days at 37°C; for MIC: Mesomycoplasma hyopneumoniae, ATCC25095, 144 h, read-out: MIC's against M. suipneumoniae ATCC 25095
[3] = tested on: M. bovigenitalium ATCC 14173; assay: MIC against Mycoplasma, in vitro agar dilution; details: Friis broth solidified with 0.9% agarose, 10^3 to 10^5 C.F.U., 6 days at 37°C; for MIC: 144 h, read-out: MIC's against M. bovigenitalium ATCC 14173
[4] = tested on: M. hyosynoviae ATCC 25591; assay: MIC against Mycoplasma, in vitro agar dilution; details: Friis broth solidified with 0.9% agarose, 10^3 to 10^5 C.F.U., 6 days at 37°C; for MIC: 144 h, read-out: MIC's against M. hyosynoviae ATCC 25591
M. suipneumoniae Str. 11 = assay: MIC against Mycoplasma, in vitro agar dilution; details: Friis broth solidified with 0.9% agarose, 10^3 to 10^5 C.F.U., 6 days at 37°C; for MIC: Mesomycoplasma hyopneumoniae, STR.11, 144 h, read-out: MIC's against M. suipneumoniae Str. 11
M. suipneumoniae LABER = assay: MIC against Mycoplasma, in vitro agar dilution; details: Friis broth solidified with 0.9% agarose, 10^3 to 10^5 C.F.U., 6 days at 37°C; for MIC: Mesomycoplasma hyopneumoniae, 144 h, read-out: MIC's against M. suipneumoniae LABER
M. suipneumoniae NB12 = assay: MIC against Mycoplasma, in vitro agar dilution; details: Friis broth solidified with 0.9% agarose, 10^3 to 10^5 C.F.U., 6 days at 37°C; for MIC: Mesomycoplasma hyopneumoniae, NB12, 144 h, read-out: MIC's against M. suipneumoniae NB12
M. suipneumoniae UCD 1 = assay: MIC against Mycoplasma, in vitro agar dilution; details: Friis broth solidified with 0.9% agarose, 10^3 to 10^5 C.F.U., 6 days at 37°C; for MIC: Mesomycoplasma hyopneumoniae, UCD1, 144 h, read-out: MIC's against M. suipneumoniae UCD 1
[5] = tested on: M. suipneumoniae NCTC 10110; assay: MIC against Mycoplasma, in vitro agar dilution; details: Friis broth solidified with 0.9% agarose, 10^3 to 10^5 C.F.U., 6 days at 37°C; for MIC: Mesomycoplasma hyopneumoniae, NCTC10110, 144 h, read-out: MIC's against M. suipneumoniae NCTC 10110
[6] = tested on: M. suipneumoniae J2206/183^b; assay: MIC against Mycoplasma, in vitro agar dilution; details: Friis broth solidified with 0.9% agarose, 10^3 to 10^5 C.F.U., 6 days at 37°C; for MIC: Mesomycoplasma hyopneumoniae, 144 h, read-out: MIC's against M. suipneumoniae J2206/183^b
M. gallisepticum S6 = assay: MIC against Mycoplasma, in vitro agar dilution; details: Friis broth solidified with 0.9% agarose, 10^3 to 10^5 C.F.U., 6 days at 37°C; for MIC: Mycoplasmoides gallisepticum, S6, 144 h, read-out: MIC's against M. gallisepticum S6
M. suipneumoniae HK(2) = assay: MIC against Mycoplasma, in vitro agar dilution; details: Friis broth solidified with 0.9% agarose, 10^3 to 10^5 C.F.U., 6 days at 37°C; for MIC: Mesomycoplasma hyopneumoniae, 144 h, read-out: MIC's against M. suipneumoniae HK(2)
M. hyorhinis ATCC 23234 = assay: MIC against Mycoplasma, in vitro agar dilution; details: Friis broth solidified with 0.9% agarose, 10^3 to 10^5 C.F.U., 6 days at 37°C; for MIC: Mesomycoplasma hyorhinis, ATCC23234, 144 h, read-out: MIC's against M. hyorhinis ATCC 23234
M. bovis NCTC 10131 = assay: microbe, parasite or virus in culture; details: for MIC: NCTC10131, 144 h, read-out: MIC's against M. bovis NCTC 10131; for MIC's against M. bovis NCTC 10131: Friis broth solidified with 0.9% agarose, 10^3 to 10^5 C.F.U., 6 days at 37°C
M. suipneumoniae JF 435 = assay: MIC against Mycoplasma, in vitro agar dilution; details: Friis broth solidified with 0.9% agarose, 10^3 to 10^5 C.F.U., 6 days at 37°C; for MIC: Mesomycoplasma hyopneumoniae, JF435, 144 h, read-out: MIC's against M. suipneumoniae JF 435
M. suipneumoniae TAM 6N = assay: MIC against Mycoplasma, in vitro agar dilution; details: Friis broth solidified with 0.9% agarose, 10^3 to 10^5 C.F.U., 6 days at 37°C; for MIC: Mesomycoplasma hyopneumoniae, TAM6N, 144 h, read-out: MIC's against M. suipneumoniae TAM 6N
M. hyorhinis ATCC 25021 = assay: MIC against Mycoplasma, in vitro agar dilution; details: Friis broth solidified with 0.9% agarose, 10^3 to 10^5 C.F.U., 6 days at 37°C; for MIC: Mesomycoplasma hyorhinis, ATCC25021, 144 h, read-out: MIC's against M. hyorhinis ATCC 25021

| Molecule | MIC (M. pneumoniae ATCC 15492) [µg/mL] | MIC [1] [µg/mL] | MIC (M. dispar NCTC 10125) [µg/mL] | MIC (M. suipneumoniae MS 16) [µg/mL] | MIC [2] [µg/mL] | MIC [3] [µg/mL] | MIC [4] [µg/mL] | MIC (M. suipneumoniae Str. 11) [µg/mL] | MIC (M. suipneumoniae LABER) [µg/mL] | MIC (M. suipneumoniae NB12) [µg/mL] | MIC (M. suipneumoniae UCD 1) [µg/mL] | MIC [5] [µg/mL] | MIC [6] [µg/mL] | MIC (M. gallisepticum S6) [µg/mL] | MIC (M. suipneumoniae HK(2)) [µg/mL] | MIC (M. hyorhinis ATCC 23234) [µg/mL] | MIC (M. bovis NCTC 10131) [µg/mL] | MIC (M. suipneumoniae JF 435) [µg/mL] | MIC (M. suipneumoniae TAM 6N) [µg/mL] | MIC (M. hyorhinis ATCC 25021) [µg/mL] | other results |
| --- | --- | --- | --- | --- | --- | --- | --- | --- | --- | --- | --- | --- | --- | --- | --- | --- | --- | --- | --- | --- | --- |
| CC(CC1OCC(CC2OC2C(C)C(C)O)C(O)C1O)=C(C)C(=O)OCc1cc(C)no1 (stereo not shown) [Example 14, 3-Methyl-5-isoxazolylmethyl 2-methylmonate A] | 1 (≈ 2.2 µM) | 0.25 (≈ 0.551 µM) | 0.1 (≈ 0.22 µM) | 0.25 (≈ 0.551 µM) | 0.5 (≈ 1.1 µM) | 0.025 (≈ 0.0551 µM) | 0.1 (≈ 0.22 µM) | 0.25 (≈ 0.551 µM) | 0.25 (≈ 0.551 µM) | 0.5 (≈ 1.1 µM) | 0.5 (≈ 1.1 µM) | 0.5 (≈ 1.1 µM) | 0.5 (≈ 1.1 µM) | 1 (≈ 2.2 µM) | 0.5 (≈ 1.1 µM) | 0.25 (≈ 0.551 µM) | ≤ 0.01 | 0.5 (≈ 1.1 µM) | 1 (≈ 2.2 µM) | 0.25 (≈ 0.551 µM) | – |
| 4-(Methylthio)benzyl 2-methylmonate [Example 11] | – | – | – | – | – | – | – | – | – | – | – | – | – | – | – | – | – | – | – | – | MIC's against M. pneumoniae ATCC 15492 (M. pneumoniae ATCC 15492): 5.0 µg/mL; MIC's against M. suipneumoniae PW/C/210 [1]: 1.0 µg/mL; MIC's against M. dispar NCTC 10125 (M. dispar NCTC 10125): 0.5 µg/mL; MIC's against M. suipneumoniae MS 16 (M. suipneumoniae MS 16): 1.0 µg/mL; MIC's against M. suipneumoniae ATCC 25095 [2]: 2.5 µg/mL; MIC's against M. bovigenitalium ATCC 14173 [3]: 0.1 µg/mL; MIC's against M. hyosynoviae ATCC 25591 [4]: 0.25 µg/mL; MIC's against M. suipneumoniae Str. 11 (M. suipneumoniae Str. 11): 1.0 µg/mL; MIC's against M. suipneumoniae LABER (M. suipneumoniae LABER): 1.0 µg/mL; MIC's against M. suipneumoniae NB12 (M. suipneumoniae NB12): 1.0 µg/mL; MIC's against M. suipneumoniae UCD 1 (M. suipneumoniae UCD 1): 2.5 µg/mL; MIC's against M. suipneumoniae NCTC 10110 [5]: 2.5 µg/mL; MIC's against M. suipneumoniae J2206/183^b [6]: 2.5 µg/mL; MIC's against M. gallisepticum S6 (M. gallisepticum S6): 10 µg/mL; MIC's against M. suipneumoniae HK(2) (M. suipneumoniae HK(2)): 2.5 µg/mL; MIC's against M. hyorhinis ATCC 23234 (M. hyorhinis ATCC 23234): 1.0 µg/mL; MIC's against M. bovis NCTC 10131 (M. bovis NCTC 10131): 0.05 µg/mL; MIC's against M. suipneumoniae JF 435 (M. suipneumoniae JF 435): 2.5 µg/mL; MIC's against M. suipneumoniae TAM 6N (M. suipneumoniae TAM 6N): 2.5 µg/mL; MIC's against M. hyorhinis ATCC 25021 (M. hyorhinis ATCC 25021): 0.5 µg/mL |
| 8-Hydroxyoctyl 2-methylmonate A [Example 13] | – | – | – | – | – | – | – | – | – | – | – | – | – | – | – | – | – | – | – | – | MIC's against M. pneumoniae ATCC 15492 (M. pneumoniae ATCC 15492): 1.0 µg/mL; MIC's against M. suipneumoniae PW/C/210 [1]: 0.5 µg/mL; MIC's against M. dispar NCTC 10125 (M. dispar NCTC 10125): 0.1 µg/mL; MIC's against M. suipneumoniae MS 16 (M. suipneumoniae MS 16): 0.5 µg/mL; MIC's against M. suipneumoniae ATCC 25095 [2]: 0.5 µg/mL; MIC's against M. bovigenitalium ATCC 14173 [3]: 0.05 µg/mL; MIC's against M. hyosynoviae ATCC 25591 [4]: 0.1 µg/mL; MIC's against M. suipneumoniae Str. 11 (M. suipneumoniae Str. 11): 0.5 µg/mL; MIC's against M. suipneumoniae LABER (M. suipneumoniae LABER): 0.5 µg/mL; MIC's against M. suipneumoniae NB12 (M. suipneumoniae NB12): 1.0 µg/mL; MIC's against M. suipneumoniae UCD 1 (M. suipneumoniae UCD 1): 1.0 µg/mL; MIC's against M. suipneumoniae NCTC 10110 [5]: 1.0 µg/mL; MIC's against M. suipneumoniae J2206/183^b [6]: 1.0 µg/mL; MIC's against M. gallisepticum S6 (M. gallisepticum S6): 5.0 µg/mL; MIC's against M. suipneumoniae HK(2) (M. suipneumoniae HK(2)): 1.0 µg/mL; MIC's against M. hyorhinis ATCC 23234 (M. hyorhinis ATCC 23234): 0.5 µg/mL; MIC's against M. bovis NCTC 10131 (M. bovis NCTC 10131): ≤0.01 µg/mL; MIC's against M. suipneumoniae JF 435 (M. suipneumoniae JF 435): 1.0 µg/mL; MIC's against M. suipneumoniae TAM 6N (M. suipneumoniae TAM 6N): 1.0 µg/mL; MIC's against M. hyorhinis ATCC 25021 (M. hyorhinis ATCC 25021): 0.5 µg/mL |
| CC(CC1OCC(CC2OC2C(C)C(C)O)C(O)C1O)=C(C)C(=O)OCCCCCCCCC(=O)O [Example 7, Sodium 9-[4-(5S-(2S,3S-epoxy-5S-hydroxy-4S-methylhexyl) -3R,4R-dihdroxytetrahydroxyran-2S-yl)-2,3-dimethylbut-2(E)-enoyloxy]nonanoate] | > 10 | 5 | 2.5 | 5 | 10 | 0.5 | 1 | 5 | 5 | 10 | > 10 | 10 | > 10 | > 10 | > 10 | 2.5 | 0.05 | > 10 | > 10 | 2.5 | – |
| CC(CC1OCC(CC2OC2C(C)C(C)O)C(O)C1O)=C(C)C(=O)OCc1ccc(Br)cc1 (stereo not shown) [Example 12, 4-Bromobenzyl 2-methylmonate A] | 10 (≈ 19 µM) | 5 (≈ 9.48 µM) | 2.5 (≈ 4.74 µM) | 5 (≈ 9.48 µM) | 5 (≈ 9.48 µM) | 0.25 (≈ 0.474 µM) | 2.5 (≈ 4.74 µM) | 5 (≈ 9.48 µM) | 5 (≈ 9.48 µM) | 5 (≈ 9.48 µM) | 10 (≈ 19 µM) | 10 (≈ 19 µM) | 10 (≈ 19 µM) | > 10 | 10 (≈ 19 µM) | 2.5 (≈ 4.74 µM) | 0.1 (≈ 0.19 µM) | 10 (≈ 19 µM) | 10 (≈ 19 µM) | 2.5 (≈ 4.74 µM) | – |
